Results reported in patent US20250099548A1, “PHARMACEUTICAL COMPOSITION FOR PREVENTING OR TREATING DEGENERATIVE BRAIN DISEASES, CONTAINING GLUCAGON-LIKE PEPTIDE-1 AND INTERLEUKIN-1 RECEPTOR ANTAGONIST” (GI INNOVATION, INC., priority 2022, published 2025).

What was measured:
Type in all cases: in vivo, mouse
[1] = test system: Tg-APP/PS1 mice; experiment: Passive avoidance test; conditions: Example 1; 72 and 120 hours after the shock; 1.2 mg/kg intraperitoneal, 4 times for 2 weeks
Experimental: (§1) The test substance was prepared by diluting GI210B1 obtained in Preparation Example 1 in saline, and it was intraperitoneally administered to 6.5-month-old Tg-APP/PS1 mice at a concentration of 1.2 mg/kg a total of 4 times for 2 weeks (FIG. 10).
(§2) In the Tg-APP/PS1 mice intraperitoneally administered with GI210B1 at 6.5 months of age in Example 1.1 above, behavioral characteristics of cognitive function were evaluated at 7.5 to 8.0 months of age. In order to evaluate the behavioral characteristics of cognitive function, a novel object recognition test (NOR test), a passive avoidance test, and a water maze test were performed. At that time, the three experiments for behavioral evaluation were performed according to a method known in the art.
The passive avoidance test is a test to confirm fear/anxiety memory by associating spatial contextual cues and shock in mice for long periods of 24 hours, 72 hours, and 120 hours. The passive avoidance test is a cognitive behavior evaluation experiment conducted to confirm memories associated with spatial and contextual cues, specifically fear and anxiety. […]
Specifically, mice have a tendency to prefer a dark place. […] The mice prepared in Example 1.1 were learned in the same manner as above, and the time for each step was measured.

[2] = test system: Tg-APP/PS1 mice; experiment: Water maze test; conditions: Example 1
Experimental: as §1, §2
The water maze test is a cognitive behavior evaluation experiment conducted to measure spatial perception learning ability and memory dependent on the hippocampus area of the brain. […]
In addition, a hidden platform test was conducted on the 6th day. The hidden platform of the water maze was removed, and then the mouse was placed in the water maze and the location the mouse stayed for 60 seconds was recorded. At that time, the time and location that the mouse stayed in the four quadrants of the water maze for 60 seconds in the absence of a hidden platform were recorded. […]

[3] = test system: Tg-APP/PS1 mice; experiment: Aβ plaque deposition in brain tissue, thioflavin S staining; conditions: 4 times for 2 weeks
Experimental: Accordingly, in order to confirm the effect of treating Alzheimer's disease by intraperitoneal administration of GI210B1, the Tg-APP/PS1 mice administered with GI210B1 (Tg+GI210B1) and the Tg-APP/PS1 mice (Tg+Veh), a control group, were sacrificed, and then the brain tissue was extracted, and Aβ plaques were stained using thioflavin S, and then the degree of Aβ plaque deposition in the parietal cortex, hippocampus, and piriform cortex regions was analyzed.
Specifically, for immunohistochemical analysis using thioflavin S staining, the brain was collected after perfusion for the mouse with 4% paraformaldehyde, and then the brain was further fixed with 4% paraformaldehyde overnight at 4° C. The brain tissue sections were prepared by cutting the fixed brain tissue to a thickness of […] using a vibratome. The prepared brain tissue sections were stained using thioflavin S by a known method. At that time, the stained image was analyzed using MetaMorph Microscopy Automation & Image Analysis software (Molecular device). The amount of plaque was quantified and expressed as the number of plaques per unit area and the sum of the plaque areas.
The Tg-APP/PS1 mice were prepared in the same manner as in Example 1.1 above. The test substance was prepared by diluting GI210B1, GI210B1C1, or GI210B1CN obtained in Preparation Example 1 to 3 in saline. Thereafter, the prepared test substances were each intraperitoneally administered to the 6.5-month-old Tg-APP/PS1 mice at a concentration of 1.2 mg/kg, 0.7778 mg/kg, and 1.1745 mg/kg a total of 4 times for 2 weeks (FIG. 23).
In the same manner as in Example 1.3 above, the mice were sacrificed, and then the brain tissue was extracted, and the degree of Aβ plaque deposition in the parietal cortex, hippocampus, and piriform cortex regions was analyzed using thioflavin S, which stains Aβ plaques.
The Tg-APP/PS1 mice were prepared in the same manner as in Example 1.1 above. The test substance was prepared by diluting GLP-1 (Peptron), GI210B1C1 obtained in Preparation Example 2 and GI212B2 obtained in Preparation Example 4, anakinra (Amgen, Kineret-inj), and the anti-IL-1 antibody (BioXcell, BE0246) in saline to concentrations of 0.0371 mg/kg, 1.1745 mg/kg, 1.8722 mg/kg, 0.2041 mg/kg, and 1.77 mg/kg, respectively. Thereafter, the prepared test substances were intraperitoneally administered to the 6.5-month-old Tg-APP/PS1 mice a total of 4 times for 2 weeks, as shown in Table 6 below (FIG. 30). […]
In the same manner as in Example 1.3 above, the mice from each group were sacrificed, and then the brain tissue was extracted, and the degree of Aβ plaque deposition in the parietal cortex, hippocampus, and piriform cortex regions was analyzed using thioflavin S, which stains Aβ plaques.

GI210B1: fusion protein dimer comprising GLP-1 (SEQ ID NO: 2), IgG4 Fc domain and IL-1Ra; SEQ ID NO: 10
moving to the dark chamber after foot shock [1]: had a tendency not to move to the dark chamber
time in target quadrant, hidden platform test ([2]; 6th day, platform removed, 60 seconds): recognized for a longer time compared to the control group (Tg+Veh)
time taken for the mouse to learn and find the location of the hidden platform (spatial perception training) ([2]; training twice a day for 5 days, 1.2 mg/kg intraperitoneal, 4 times for 2 weeks): somewhat slower than that of the normal group, but faster than that of the control group (Tg+Veh)
amount of plaque deposited in the brain (number of plaques per unit area and sum of plaque areas) ([3]; Example 1, parietal cortex, hippocampus, piriform cortex, GI210B1 1.2 mg/kg intraperitoneal): tended to be reduced compared to the control group
amount of plaque deposited in the brain (number of plaques per unit area and sum of plaque areas) ([3]; Example 2, GI210B1, GI210B1C1, GI210B1CN at 1.2, 0.7778, 1.1745 mg/kg intraperitoneal): statistically significantly reduced compared to the control group (Tg+Veh)
amount of plaque deposited in the brain (number of plaques per unit area and sum of plaque areas) ([3]; Example 2, GI210B1, GI210B1C1, GI210B1CN at 1.2, 0.7778, 1.1745 mg/kg intraperitoneal, listed as G2101B1): tended to be reduced
